Experiments:
Type in all cases: in vivo, rat
[1] = system: rats with middle cerebral artery occlusion; assay: Cerebral microcirculatory blood flow in rats with middle cerebral artery occlusion; conditions: 1 mL/kg ip
Description: 60 SD rats with a body weight of 220±20 g were randomly divided into normal control group, model control group, salvianic acid injection group (ip. 1 mL/kg), and group of bornyl β-(3,4-dihydroxylphenyl)-α-hydroxylpropionate ester at a small, middle and large dose respectively (ip. 5, 15, and 35 mg/kg). The rats of normal group and model group were administered with equal-volume of physiologic saline by ip. The rats were anesthetized by intraperitoneal injection of 1% pentobarbital sodium at an amount of 40 mg/kg, then placed at supine position, head fixed, and cut skin along cervical middle line. Trachea cannula, was inserted into the rats and they were allowed to spontaneous respire. Right common jugular vein and common carotid artery were isolated and a suture was introduced for later use. Animals were fixed on a rat stereotaxic apparatus, a cranial window with a size of 6×8 mm was opened at the right temple with a dental drill, after hemostasis, cerebral dura mater was cut open with scissors to expose cerebral pia mater. The window was covered and sealed with glass and dental cement, and the laser probe of a laser-doppler microcirculatory blood flow meter was fixed on the cranial window. Then the animals were fixed at lateral position, the right common carotid artery was lifted, ligated at the proximal part and carefully cut with scissors, a nylon suture having a diameter of about 0.3 mm was introduced into the artery. The distance between the artery cut and the paropia of the rats was marked before the suture was introduced. […] When the suture arrived at middle cerebral artery, an abrupt decrease of the microcirculatory blood flow would be observed. After the observation of a decrease in the microcirculatory blood flow, the suture was further penetrated by about 1 mm, and the distal end of the cut and the suture in the artery were ligated securely. Spare suture was cut-off. After the end of the test, it was checked whether the nylon suture blocked the initiation site of the middle cerebral artery, and the data of any animal whose artery was not blocked were cancelled. The animals of the control group were not treated. After the cranial window was prepared, the probe of J I2200 type laser-doppler microcirculatory blood flow meter was fixed at the cranial window, and the probe was maintained without displacement and rotation during the whole test. The microcirculatory blood flows before ligation and 5, 15, 30, 45 and 60 min after ligation were recorded, and the data of the animals in the drug-treatment groups were recorded at the same time points. The mean microcirculatory blood flow observed within 1 min at each time point was designated as the microcirculatory blood flow of the respective time point.

[2] = system: rats with cardiac ischemia reperfusion (I/R) injury; assay: Myocardial infarction areas caused by cardiac muscle I/R; conditions: 1 mL/kg, 5 days; ischemia 30 min, reperfusion 30 min
Description: (§1) 52 SD rats having a body weight of 220±20 g were randomly divided into model control group, salviannic acid injection group (in 1 mL/kg), and group of bornyl β-(3,4-dihydroxylphenyl)-α-hydroxylpropionate ester at a small, middle and large dose (ip 5, 15, 35 mg/kg). The rats of the normal group and the model control group were ip administered with equal-volume of physiologic saline. The rats of all groups were administered for consecutive 5 days. When the rats were administered for the last time, they were simultaneously anesthetized with 1.5% pentobarbital sodium (ip 45 mg/kg), then a catheter was inserted into the right carotid artery, and connected via a transducer to an eight-channeled physiological recorder. Tracheal cannula was performed, and the ventilation rate was maintained at 60 times/min. The chest was opened, a 6/0 suture was used to form a loop at a site 1˜2 mm from the root of the anterior descending coronary artery, and a plastic pipe was introduced through the loop, then the loop was tightened up. The change of electrocardiogram was observed. An increase or decrease of ST indicated the success of ligation. The color of the myocardial tissue below the ligation suture became darker. 30 minutes later, the plastic pipe was pulled out to allow coronary artery blood flowing again and cause hyperemia of local tissue during reperfusion. For the groups subjected to ischemia for 30 min and reperfusion for 30 min, the myocardial infarction areas were recorded before the test, after ischemia for 1 min and 30 min, and after reperfusion for 30 min; for the groups subjected to ischemia for 30 min and reperfusion for 2 h, cardiac tissue samples were taken and fixed using 10% formalin, embedded with paraffin, serially sliced into sections with a thickness of 4 μm, and separately subjected to immunohistochemistry tests; the rats of the sham operation group were subjected only to the introduction of suture but their coronary arteries were not ligated.
After the rats were subjected to ischemia and reperfusion for 30 minutes, their anterior descending coronaries were ligated again, then they were sacrificed, their hearts were removed promptly, and 0.5 mL of 1% evans blue was injected into heart chambers via aorta to distinguish the ischemic regions and the non-ischemic regions. After the heart atrium and right ventricle were cut-off, the heart was refrigerated at −20° C. for 30 min, then placed in a tailor-made slice groove, and cut along the long axis to form 2 mm slices. The slices were immersed in 1% TTC phosphoric acid buffer solution (pH7.4), and incubated at 37° C. for 30 min to distinguish risky regions and necrotic regions. Then the slices were fixed with 10% formaldehyde for 24 h to enhance staining color for contrast photography. After the above treatment, the myocardial tissue was divided into: normal myocardia in blue, ischemic myocardia in light red, and necrotic myocardion in gray. A computer image analysis software was used to calculate the percentage of the area of the infarct myocardial region (nec) based on the area of the risky myocardial region (aar, i.e., ischemic myocardia, including ischemic infarct region and ischemic non-infarct region) (nec/aar), and the percentage of the area of the infarct myocardial region based on the whole area of the myocardia (nec/lv) to indicate the degree of infarct, as well as the percentage of the area of the risky myocardia based on the area of the left ventricle (aar/lv).

Bax = assay: Immunohistochemistry protein expression in I/R myocardial tissue: Bax; conditions: 1 mL/kg, 5 days; ischemia 30 min, reperfusion 2 h
Description: as §1
(§2) Standard immunohistochemistry ABC and SP methods were employed for staining. Bax: anti-rabbit polyclonal antibody (Santa CruzBio. Inc.) at a dilution of 1:200; […]: anti-rabbit polyclonal antibody (TBD Tianjin Biotechnological Center). At a dilution of […]; caspase-3: anti-rabbit polyclonal antibody (Normarkers Fromont, Calif.), at a dilution of 1:200; MMP-2: anti-murine monoclonal antibody (NormarkersFromont, Calif.) at a dilution of 1:200; PPARγ: anti-caprine polyclonal antibody (Santa Cruz Bio. Inc.), at a dilution of 1:500. The specific procedures were performed in accordance with the instructions of the ABC and SP kits, DAB was used for color development, and neutral resin was used for mounting. PBS was used instead of the first antibody as a negative control. Cells with positive expression of the test polypeptides were of brown-yellow color, with MMP-2 protein being present in acytoplasm, Bcl-2 expressed in nuclear membrane and cytoplasm, Bax mainly in cytoplasm and partially in nucleus, and caspase-3 mainly in nucleus and partially in cytoplasm. CMIAS image analysis system was used for random selection of fields of slices and automatic selection of sites for analysis, and statistic analysis was performed by using mean optical density values or integral optical density values of the obtained myocardial tissue slices.

Bcl-2 = assay: Immunohistochemistry protein expression in I/R myocardial tissue: Bcl-2; conditions: 1 mL/kg, 5 days; ischemia 30 min, reperfusion 2 h
Description: as §1, §2

caspase-3 = assay: Immunohistochemistry protein expression in I/R myocardial tissue: caspase-3; conditions: 1 mL/kg, 5 days; ischemia 30 min, reperfusion 2 h
Description: as §1, §2

MMP-2 = assay: Immunohistochemistry protein expression in I/R myocardial tissue: MMP-2; conditions: 1 mL/kg, 5 days; ischemia 30 min, reperfusion 2 h
Description: as §1, §2

PPARγ = assay: Immunohistochemistry protein expression in I/R myocardial tissue: PPARγ; conditions: 1 mL/kg, 5 days; ischemia 30 min, reperfusion 2 h
Description: as §1
Standard immunohistochemistry ABC and SP methods were employed for staining. Bax: anti-rabbit polyclonal antibody (Santa CruzBio. Inc.) at a dilution of 1:200; […]: anti-rabbit polyclonal antibody (TBD Tianjin Biotechnological Center). At a dilution of […]; caspase-3: anti-rabbit polyclonal antibody (Normarkers Fromont, Calif.), at a dilution of 1:200; MMP-2: anti-murine monoclonal antibody (NormarkersFromont, Calif.) at a dilution of 1:200; PPARγ: anti-caprine polyclonal antibody (Santa Cruz Bio. Inc.), at a dilution of 1:500. The specific procedures were performed in accordance with the instructions of the ABC and SP kits, DAB was used for color development, and neutral resin was used for mounting. PBS was used instead of the first antibody as a negative control. […]

## O=C(O)C(O)Cc1ccc(O)c(O)c1 (stereo not drawn) [Salvianic acid, β-(3,4-dihydroxyphenyl)-α-hydroxyl-propionic acid, reference compound]
[1]; 5 min after ligation
  Microcirculatory blood flow: 10.8 ± 3.6 mL
[1]; 15 min after ligation
  Microcirculatory blood flow: 20.1 ± 6.9 mL
[1]; 30 min after ligation
  Microcirculatory blood flow: 31.2 ± 9.5 mL
[1]; 45 min after ligation
  Microcirculatory blood flow: 33.0 ± 6.8 mL
[1]; 60 min after ligation
  Microcirculatory blood flow: 29.4 ± 6.9 mL
[2]
  aar/lv: 50.21 ± 7.10 %
  nec/aar: 49.87 ± 7.83 %
  nec/lv: 41.41 ± 5.49 %
Bax
  Bax protein expression, OD value: 0.08 ± 0.02
Bcl-2
  Bcl-2 protein expression, OD value: 0.18 ± 0.04
caspase-3
  Caspase-3 protein expression, OD value: 0.21 ± 0.12
MMP-2
  MMP-2 protein expression, OD value: 0.12 ± 0.05
PPARγ
  PPARγ protein expression, OD value: 0.34 ± 0.08

Source: US8017786B2, “Substituted β-phenyl-α-hydroxy-propanoic acid, synthesis method and use thereof” (Northwest University, priority 2006, dated 2011)
